Test system: carmine mites (Tetranychus telarius L.)
Assay: Miticidal effect on carmine mites
Type: in vivo
Design: key: -: Hardly any injury was observed.; +: Some injury was observed.; ++: The same injury as in the non-treated area was noted
Conditions: 500 ppm active ingredient, spray plus soil, kidney beans, 8 days later
Description: Female imagoes of carmine mites were caused to live at a rate of 10 per leaf on bineless kidney beans (in the primary leaf stage) in pots 7 days after sowing, and kept in a constant temperature chamber at 25° C. Six days later, a chemical obtained by diluting a wettable powder of each of compounds Nos. 4-6, 9-13, 15, 16, 21, 22, 25, 28-30, 33, 34, 36, 37 and 38 with water to an active ingredient concentration of 500 ppm was sprayed at a rate of 10 ml per pot, and at the same time, 2 ml of the chemical was poured into the soil. Eight days later, injuries to the plants by the mites were examined.
The degree of injury is shown by -, + and ++ as follows: […]

| Compound | Degree of injury |
| --- | --- |
| CC(C)([CH2][Sn]([CH2]C(C)(C)c1ccccc1)([CH2]C(C)(C)c1ccccc1)[S]CCC[Si]12OCCN(CCO1)CCO2)c1ccccc1 [compound 4, 1-(3-trineophylstannylthiopropyl)silatrane] | - |
| CC(C)([CH2][Sn]([CH2]C(C)(C)c1ccccc1)([CH2]C(C)(C)c1ccccc1)[S]CC[Si]12OCCN(CCO1)CCO2)c1ccccc1 [compound 5] | -~+ |
| CC1CN2CC(C)O[Si](CC[S][Sn]([CH2]C(C)(C)c3ccccc3)([CH2]C(C)(C)c3ccccc3)[CH2]C(C)(C)c3ccccc3)(O1)OC(C)C2 (centres unmarked) [compound 6] | -~+ |
| CC1CN2CC(C)O[Si](CCC[S][Sn]([CH2]C(C)(C)c3ccccc3)([CH2]C(C)(C)c3ccccc3)[CH2]C(C)(C)c3ccccc3)(O1)OC(C)C2 (centres unmarked) [compound 10] | - |
| CCCCCCC[CH2][Sn]([CH2]CCCCCCC)([CH2]CCCCCCC)[S]CCC[Si]12OCCN(CCO1)CCO2 [compound 15] | - |
| CCCCCCC[CH2][Sn]([CH2]CCCCCCC)([CH2]CCCCCCC)[S]CCC[Si]12OC(C)CN(CC(C)O1)CC(C)O2 (centres unmarked) [compound 16] | - |
| CCC1CN2CCO[Si](CCC[S][Sn]([CH2]C(C)(C)c3ccccc3)([CH2]C(C)(C)c3ccccc3)[CH2]C(C)(C)c3ccccc3)(O1)OC(CC)C2 (centres unmarked) [compound 21] | - |
| CCC1CN2CCO[Si](CCC[S][Sn]([CH]3CCCCC3)([CH]3CCCCC3)[CH]3CCCCC3)(O1)OC(CC)C2 (centres unmarked) [compound 22] | -~+ |
| CCC[CH2][Sn]([CH2]CCC)([CH2]CCC)[S]CCC[Si]12OCCN(CCO1)CC(CC)O2 (centres unmarked) [compound 25] | -~+ |
| CCC1CN2CCO[Si](CCC[S][Sn]([CH2]C(C)C)([CH2]C(C)C)[CH2]C(C)C)(O1)OC(CC)C2 (centres unmarked) [compound 28] | - |
| CCCCCCC[CH2][Sn]([CH2]CCCCCCC)([CH2]CCCCCCC)[S]CCC[Si]12OCCN(CCO1)CCO2 [compound 29] | -~+ |
| CCCCCCC[CH2][Sn]([CH2]CCCCCCC)([CH2]CCCCCCC)[S]CCC[Si]12OC(C)CN(CC(C)O1)CC(C)O2 (centres unmarked) [compound 30] | - |
| CCC1CN2CCO[Si](CCC[S][Sn]([CH2]C(C)(C)c3ccccc3)([CH2]C(C)(C)c3ccccc3)[CH2]C(C)(C)c3ccccc3)(OCC2)O1 (centres unmarked) [compound 33] | - |
| CCC1CN2CC(C)O[Si](CCC[S][Sn]([CH2]C(C)(C)c3ccccc3)([CH2]C(C)(C)c3ccccc3)[CH2]C(C)(C)c3ccccc3)(OC(C)C2)O1 (centres unmarked) [compound 34] | - |
| CCC1CN2CCO[Si](CCC[S][Sn]([CH]3CCCCC3)([CH]3CCCCC3)[CH]3CCCCC3)(OCC2)O1 (centres unmarked) [compound 36] | -~+ |
| CCC1CN2CC(C)O[Si](CCC[S][Sn]([CH]3CCCCC3)([CH]3CCCCC3)[CH]3CCCCC3)(OC(C)C2)O1 (centres unmarked) [compound 37] | - |
| CC(C)(C)[CH2][Sn]([CH2]C(C)(C)C)([CH2]C(C)(C)C)[S]CC[Si]12OCCN(CCO1)CCO2 [compound 38] | - |

Source: patent US4654368A, “Tri-organotin silatrane derivatives and pesticidal compositions, fungicides or antifouling agents comprising said compounds as active ingredients” (Nitto Kasei Co., Ltd., priority 1984, dated 1987)
